What was measured:
Type in all cases: in vivo
Halyomorpha halys = assay: Brown marmorated stink bug spray test on soybean seeds in cups; conditions: 300 ppm, adults on soybean seeds, 5 days after treatment
Protocol: Halyomorpha halys (Brown Marmorated Stink Bug)
For evaluating control of Halyomorpha halys the active compound is dissolved at the desired concentration in a mixture of 1:1 (vol:vol) distilled water:acetone with 0.005% (v/v) of Tween 20 added as surfactant. Soybean seeds are placed in a small petri dish inside a plastic cup 10 adults (5 females and 5 males) are introduced into each cup. Using an airbrush sprayer, 1 mL solution was sprayed directly inside the cups with bean pods. After drying, a water source (wet cotton in a small petri dish) is placed in each cup, and the cups closed with ventilated cover. All cups held under constant temperature of 20° C., 16L:8D photoperiod. Live insects are counted at 5 days after treatment.

Euschistus heros = assay: Brown stink bug test on sprayed soybean seedlings of Intacta and BMX-Potencia; conditions: 100 ppm, 6 days after application; for efficacy on soybean with Bacillus thuringiensis toxin trait (INTACTA) versus soybean without the trait (BMX-POTENCIA): sprayed seedlings; for mortality (corrected according to Abbott): sprayed soybean seedlings of Intacta and BMX-Potencia, adults
Protocol: Brown Stink Bug (Euschistus heros)
The active compound is dissolved at the desired concentration in a mixture of 1:1 (vol:vol) distilled water:acetone. Soybean seedlings of Intacta and BMX-Potencia with one pair of true leaves were sprayed 10 with 2 ml solution using an airbrush. After dry, the plants in small pots were placed inside a transparent plastic cage and infested with 10 adults adult stage individuals. Treated cups were kept at about 25° C. Percent mortality was recorded after 6 days after application. […] Entomal., 18 (1925) 265-267.

Nezara viridula = assay: Green soldier stink bug soil drench test on lima bean plants; conditions: 250 g ai/ha, 2nd instar nymphs infested 3 days after treatment, read 4 days after infestation
Protocol: Green Soldier Stink Bug (Nezara viridula)
Lima Bean (Phaseolus lunatus, ‘Henderson Bush,’ Lot #—VR06650) plants were transplanted at the two true-leaf stage into 25.8 cm2 pots filled with sifted (No. 10 sieve). Pots were held in the greenhouse and watered daily until treatment. Three days after transplant, the compounds were dissolved in acetone and then diluted with water for a final concentration of 50% acetone. Treatments were applied as a drench in 1 ml solution per plant. Plants were held in an environmental chamber (25±2° C., 24 L) and watered as needed for the duration of the test.
Three days after treatment, plants were infested with five 2nd instar nymphs. Plants were 15 covered with organza fabric bags to prevent escape. Four days after infestation, the number of live nymphs on each plant was recorded, and means were calculated for each treatment. The percent control was calculated as the percent mortality relative to the solvent blank.

SMILES	mortality in comparison with untreated controls (Halyomorpha halys)	efficacy on soybean with Bacillus thuringiensis toxin trait (INTACTA) versus soybean without the trait (BMX-POTENCIA) (Euschistus heros)	mortality (corrected according to Abbott) (Euschistus heros) [%]	mortality in comparison with untreated controls (percent control relative to the solvent blank) (Nezara viridula)
Cc1cccc(-c2c([O-])[n+]3ccccc3n(CCC#N)c2=O)c1 [Compound C-6]	at least 75%			
N#CCCn1c(=O)c(-c2cc(C3CC3)cc(C(F)(F)F)c2)c([O-])[n+]2ccccc12 [Compound C-8]		higher efficacy	68	at least 75%
N#CCCn1c(=O)c(-c2ccc(F)cc2)c([O-])[n+]2ccccc12 [Compound C-9]		higher efficacy	70	

From US20200397001A1, “CONTROL OF PESTS OF SOYBEAN PLANTS WITH MESOIONIC COMPOUNDS” (BASF SE, priority 2018, published 2020)
